The values below come from paper PMC5130295, “Structural basis for the disaggregase activity and regulation of Hsp104” (eLife, 2016).

For test [1], the target named is T1, CtHsp104 (Thermochaetoides thermophila, UniProt G0S4G4, D295A/E296A).
T1 construct: gene CTHT_0022720; full-length, synthetic gene, pET21a, C-terminal His6 tag, E. coli; NTD not visible in the crystal structure
Nature of the test: X-ray crystal structure, […] Å. The test is classed as binding. Conditions: ADP bound in AAA1 and AAA2 active sites; incubated with ADP and AlF3, 3 mM each; pH 5.8.

The target of a further test is T2, ScHsp104 (Saccharomyces cerevisiae, UniProt P31539).
T2 construct: gene HSP104; cloned from yeast genomic DNA, pET21a, C-terminal His6 tag, E. coli
Nature of the test: coupled ATPase assay (pyruvate kinase / lactate dehydrogenase). The class given is biochemical. Particulars: 5 mM MgCl2; varying ATP; Hill fit.

Test [2] concerns the target T3, CtHsp104 (Thermochaetoides thermophila, UniProt G0S4G4).
T3 construct: gene CTHT_0022720; full-length, synthetic gene, pET21a, C-terminal His6 tag, E. coli; NTD not visible in the crystal structure
Described as above. The class given is biochemical. Particulars: 5 mM MgCl2; varying ATP; Hill fit.

Test [3] deals with CtHsp104 catalytic inactive double Walker A mutant (Chaetomium thermophilum). Put plainly: SEC; SEC profiles with elution volumes of marker proteins.
Test [4] deals with CtHsp104 double Walker B mutant (Chaetomium thermophilum). The test is described as above.
The target of test [5] is Hsp104 disaggregase from Chaetomium thermophilum, wild type (Chaetomium thermophilum). The description is as above.

T1 sequence (G0S4G4 entry or part of it D295A/E296A): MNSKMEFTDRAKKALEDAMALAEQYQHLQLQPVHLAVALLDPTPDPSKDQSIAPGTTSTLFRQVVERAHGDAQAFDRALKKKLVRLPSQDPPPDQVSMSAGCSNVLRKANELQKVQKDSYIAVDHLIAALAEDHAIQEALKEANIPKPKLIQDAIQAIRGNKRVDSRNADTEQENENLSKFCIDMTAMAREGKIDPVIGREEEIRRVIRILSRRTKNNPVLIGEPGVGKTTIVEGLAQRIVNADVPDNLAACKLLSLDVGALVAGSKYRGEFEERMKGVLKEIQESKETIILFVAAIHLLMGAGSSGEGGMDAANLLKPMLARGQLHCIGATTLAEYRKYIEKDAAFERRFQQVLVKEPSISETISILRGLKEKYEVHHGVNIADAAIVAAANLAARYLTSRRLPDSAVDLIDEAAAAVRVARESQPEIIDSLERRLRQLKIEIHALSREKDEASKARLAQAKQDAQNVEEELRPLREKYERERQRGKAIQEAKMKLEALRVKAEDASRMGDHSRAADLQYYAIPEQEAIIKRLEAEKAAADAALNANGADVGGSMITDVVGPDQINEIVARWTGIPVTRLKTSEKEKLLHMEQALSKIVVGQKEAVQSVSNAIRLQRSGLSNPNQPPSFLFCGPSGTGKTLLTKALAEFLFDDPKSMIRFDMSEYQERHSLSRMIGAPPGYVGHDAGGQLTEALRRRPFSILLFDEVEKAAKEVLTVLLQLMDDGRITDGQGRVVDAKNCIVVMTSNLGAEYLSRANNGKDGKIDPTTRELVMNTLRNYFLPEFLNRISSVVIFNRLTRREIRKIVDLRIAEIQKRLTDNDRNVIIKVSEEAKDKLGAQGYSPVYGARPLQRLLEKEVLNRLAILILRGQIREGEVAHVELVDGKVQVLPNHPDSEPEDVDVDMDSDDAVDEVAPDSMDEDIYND
T2 sequence (P31539 whole entry): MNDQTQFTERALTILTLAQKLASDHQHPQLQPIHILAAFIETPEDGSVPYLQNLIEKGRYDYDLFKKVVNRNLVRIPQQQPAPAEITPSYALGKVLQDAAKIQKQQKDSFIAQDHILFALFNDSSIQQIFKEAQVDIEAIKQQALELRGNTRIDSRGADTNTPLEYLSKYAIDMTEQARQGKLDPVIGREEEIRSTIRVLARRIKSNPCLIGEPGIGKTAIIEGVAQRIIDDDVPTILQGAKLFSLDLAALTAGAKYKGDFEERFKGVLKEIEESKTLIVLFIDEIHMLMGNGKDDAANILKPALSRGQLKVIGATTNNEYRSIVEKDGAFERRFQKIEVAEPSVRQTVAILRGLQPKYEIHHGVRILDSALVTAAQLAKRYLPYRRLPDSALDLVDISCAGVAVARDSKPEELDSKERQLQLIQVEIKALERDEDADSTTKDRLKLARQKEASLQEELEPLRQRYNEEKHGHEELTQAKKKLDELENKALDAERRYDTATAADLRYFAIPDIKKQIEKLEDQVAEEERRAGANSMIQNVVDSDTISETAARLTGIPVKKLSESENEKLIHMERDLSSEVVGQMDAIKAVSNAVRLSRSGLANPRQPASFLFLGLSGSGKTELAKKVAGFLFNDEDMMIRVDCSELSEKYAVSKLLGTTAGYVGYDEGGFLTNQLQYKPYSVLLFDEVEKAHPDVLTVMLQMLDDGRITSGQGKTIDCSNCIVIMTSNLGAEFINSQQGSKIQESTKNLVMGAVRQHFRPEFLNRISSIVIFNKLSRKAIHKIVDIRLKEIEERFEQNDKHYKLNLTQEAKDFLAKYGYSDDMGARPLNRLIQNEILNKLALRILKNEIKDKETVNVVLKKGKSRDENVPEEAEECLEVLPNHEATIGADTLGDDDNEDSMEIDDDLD
T3 sequence (G0S4G4 entry or part of it): as the sequence (G0S4G4 entry or part of it D295A/E296A) above, with A295D, A296E counted along it

On to `Nc1ncnc2c1ncn2[C@@H]1O[C@H](COP(=O)(O)OP(=O)(O)O)[C@@H](O)[C@H]1O` [ADP], for which the “X-ray crystal structure, 3.7 Å” value at CtHsp104 [1] is “The crystal structure of the double Walker-B mutant in complex with ADP was determined”. As to `Nc1ncnc2c1ncn2[C@@H]1O[C@H](COP(=O)(O)OP(=O)(O)OP(=O)(O)O)[C@@H](O)[C@H]1O` [ATP], the “coupled ATPase assay (pyruvate kinase / lactate dehydrogenase)” value at ScHsp104 was “ATPase and GFP unfolding activity of wt and ΔPS1 mutants of Ct and ScHsp104”; at CtHsp104 [2], “ATPase activity was determined by a coupled enzymatic reaction”.

Broadly, the stoichiometry N is the number of molecules, sites or subunits per partner or assembly. Take “CtHsp104 catalytic inactive double Walker A mutant (natural protein)”: in test [3], the stoichiometry N came out at 6. “CtHsp104 double Walker B mutant (natural protein)” registered a stoichiometry N in test [4] of 6. For “Hsp104 disaggregase from Chaetomium thermophilum, wild type (natural protein)”, the stoichiometry N in test [5] amounted to 6.
